These results are taken from patent US12030867B2, “Hsp90β selective inhibitors” (University of Notre Dame du Lac, priority 2018, dated 2024).

SMILES strings stand for the structures. Bounds are passed on as bounds.

In data set [1] the test system is LNCap-LN3 prostate cancer cells. Briefly: cells.
For data set [2], the system named is T24 bladder cancer cells. Briefly: tissue or blood.
Data set [3] deals with UM-UC-3 bladder cancer cells. Put plainly: cells. The settings on record: Homo sapiens, UMUC3.
The subject of data set [4] is C4-2b prostate cancer cells. Briefly: cells.
Data set [5] has as its system PC3-MM2 prostate cancer cells. Put plainly: cells. The settings on record: Homo sapiens, PC3MM2.
Data set [6] concerns other colon cancer cells. Put plainly: cells.
In data set [7] the target is Trap-1 (Homo sapiens (Human), UniProt Q12931). Briefly: binding affinity towards Trap-1.
Sequence of Trap-1 (Q12931 60-704): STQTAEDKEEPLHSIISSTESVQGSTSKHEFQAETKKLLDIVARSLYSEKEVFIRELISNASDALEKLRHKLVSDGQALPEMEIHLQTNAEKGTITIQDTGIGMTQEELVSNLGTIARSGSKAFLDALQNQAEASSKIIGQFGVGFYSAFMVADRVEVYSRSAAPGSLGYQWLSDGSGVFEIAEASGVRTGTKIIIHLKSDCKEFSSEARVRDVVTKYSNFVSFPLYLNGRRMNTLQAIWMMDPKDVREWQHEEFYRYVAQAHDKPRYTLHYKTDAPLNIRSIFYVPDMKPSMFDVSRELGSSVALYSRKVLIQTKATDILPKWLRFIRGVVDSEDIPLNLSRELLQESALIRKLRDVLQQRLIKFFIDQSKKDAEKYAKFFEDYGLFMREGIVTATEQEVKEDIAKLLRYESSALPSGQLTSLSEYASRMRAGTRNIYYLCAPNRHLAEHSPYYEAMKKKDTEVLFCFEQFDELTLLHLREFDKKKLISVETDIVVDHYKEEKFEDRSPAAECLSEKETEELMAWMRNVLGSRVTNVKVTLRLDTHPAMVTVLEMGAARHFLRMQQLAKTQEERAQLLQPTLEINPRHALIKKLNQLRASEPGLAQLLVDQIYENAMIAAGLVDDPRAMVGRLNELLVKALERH
For data set [8], the system named is LAPC4 prostate cancer cells. Briefly: cells. The following applies: Homo sapiens.
For data set [9], the system named is HT29 cells. Briefly: cells. The following applies: Homo sapiens, HT-29.
Data set [10] has as its system prostate cancer cells. Briefly: cells. The following applies: read-out: efficacy against prostate cancer cells.
Data set [11] has as its target Grp94 (Homo sapiens (Human), UniProt P14625). Put plainly: binding affinity towards Grp94.
Data set [12] relates to Hsp90 client proteins in UM-UC-3 cells. Briefly: western blot analysis of client proteins in UM-UC-3 cells. The format is cell-based. The following applies: 24-hour incubation. The method, then:
Since Hsp90 inhibition induces the degradation of Hsp90-dependent substrates via the ubiquitin-proteosome pathway, the levels of both kinase and non-kinase Hsp90 clients were assessed via western blot analysis. […]. […] […]. Survivin, which is an Hsp90α dependent substrate was not affected, providing direct evidence for isoform-selective inhibition in a cellular context.

Data set [13] deals with HT1376 bladder cancer cells. Briefly: cells. The settings on record: Homo sapiens, HT-1376.
For data set [14], the system named is UM-UC3 bladder cancer cells. Briefly: cells. The settings on record: Homo sapiens, UMUC3.
The test system of data set [15] is screened cancer cell lines. Put plainly: inhibitory activity against a variety of cancer cell lines. The format is cell-based.
Data set [16] has as its system HTB-5 bladder cancer cells. Briefly: tissue or blood.
Data set [17] relates to HCT-116 colon cancer cells. Put plainly: cells. The settings on record: Homo sapiens.
The subject of data set [18] is hERG channel. Briefly: western blot analysis of hERG channel trafficking in hERG-HEK293 cells. The following applies: HEK293 cells expressing the hERG channel. The data set is classed as cell-based. The method, then: (§1) 0.5 μM GDA was included as positive control and vehicle (D=DMSO) as negative control. […] Hsp90α siRNA was included as positive control and vehicle (lipofectamine) as negative control.

The subject of data set [19] is Hsp90 client proteins in HCT-116 cells. Briefly: western blot analysis following treatment of HCT-116 cells. The format is cell-based. The protocol:
as §1

The target of data set [20] is Hsp90β (Homo sapiens (Human), UniProt P08238). Put plainly: fluorescence polarization (FP) assay, competitive displacement of FITC labeled Geldanamycin. The data set is classed as binding. The settings on record: FP assay. The protocol:
Once prepared, the compounds were evaluated for their binding affinities against the cytosolic isoforms, Hsp90α and Hsp90β by measuring their ability to competitively displace FITC labeled Geldanamycin (GDA) in a fluorescence polarization assay (apparent Kd's listed in Table 1). […] The alkyne (4k) was investigated to determine whether a linear substituent could project into the subpocket and affect selectivity.

Data set [21] deals with K562 leukemia cells. Put plainly: cells. The settings on record: Homo sapiens.
For data set [22], the system named is MOLM-13 leukemia cells. Put plainly: cells. The settings on record: Homo sapiens.
For data set [23], the system named is HTB-9 bladder cancer cells. Briefly: tissue or blood.

Sequence of Hsp90β (P08238 whole entry, canonical isoform): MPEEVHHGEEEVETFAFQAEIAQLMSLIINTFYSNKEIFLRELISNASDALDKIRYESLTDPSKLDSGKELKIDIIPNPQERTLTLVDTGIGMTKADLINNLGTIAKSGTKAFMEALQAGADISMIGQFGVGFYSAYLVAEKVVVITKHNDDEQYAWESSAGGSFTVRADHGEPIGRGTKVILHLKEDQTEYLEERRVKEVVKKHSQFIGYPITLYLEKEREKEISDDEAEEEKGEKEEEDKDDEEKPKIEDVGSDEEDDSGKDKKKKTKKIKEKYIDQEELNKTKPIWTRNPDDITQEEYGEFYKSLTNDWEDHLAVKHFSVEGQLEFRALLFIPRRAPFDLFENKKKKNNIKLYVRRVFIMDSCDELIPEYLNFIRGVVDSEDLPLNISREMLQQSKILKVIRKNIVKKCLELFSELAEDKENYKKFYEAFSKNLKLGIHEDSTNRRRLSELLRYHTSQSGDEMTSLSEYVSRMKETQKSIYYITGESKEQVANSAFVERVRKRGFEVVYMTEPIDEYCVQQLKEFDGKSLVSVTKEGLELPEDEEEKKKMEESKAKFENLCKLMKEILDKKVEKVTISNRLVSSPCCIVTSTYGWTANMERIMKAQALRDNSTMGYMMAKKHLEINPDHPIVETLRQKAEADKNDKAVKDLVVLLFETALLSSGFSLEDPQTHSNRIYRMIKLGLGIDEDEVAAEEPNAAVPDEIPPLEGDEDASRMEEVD
Sequence of Grp94 (P14625 22-803, species assumed): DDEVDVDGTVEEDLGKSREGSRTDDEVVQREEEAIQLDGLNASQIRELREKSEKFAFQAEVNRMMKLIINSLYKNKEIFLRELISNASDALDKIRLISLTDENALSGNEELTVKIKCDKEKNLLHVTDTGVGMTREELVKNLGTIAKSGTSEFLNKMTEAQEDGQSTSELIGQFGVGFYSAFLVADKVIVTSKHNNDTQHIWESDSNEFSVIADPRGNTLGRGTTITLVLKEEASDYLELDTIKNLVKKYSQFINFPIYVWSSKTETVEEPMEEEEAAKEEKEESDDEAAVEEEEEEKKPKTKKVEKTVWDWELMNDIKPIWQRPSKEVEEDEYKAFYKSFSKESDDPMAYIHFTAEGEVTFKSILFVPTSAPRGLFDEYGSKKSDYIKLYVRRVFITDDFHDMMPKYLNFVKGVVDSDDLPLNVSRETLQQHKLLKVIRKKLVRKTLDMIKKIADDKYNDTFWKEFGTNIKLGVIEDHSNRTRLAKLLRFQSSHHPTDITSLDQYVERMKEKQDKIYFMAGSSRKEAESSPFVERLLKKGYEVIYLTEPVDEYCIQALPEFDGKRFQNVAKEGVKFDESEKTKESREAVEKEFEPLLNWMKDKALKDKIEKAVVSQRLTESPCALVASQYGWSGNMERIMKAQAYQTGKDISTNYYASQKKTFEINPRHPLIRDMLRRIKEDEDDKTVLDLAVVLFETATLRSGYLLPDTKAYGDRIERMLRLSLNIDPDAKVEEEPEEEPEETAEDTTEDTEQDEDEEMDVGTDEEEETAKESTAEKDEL

On to `CCCc1cc2cc(-n3nc(C)c4c3CC(C)(C)CC4=O)cc(N[C@H]3CC[C@H](O)CC3)c2c(=O)[nH]1` [Compound 4d, 8-(((1r,4r)-4-hydroxycyclohexyl)amino)-3-propyl-6-(3,6,6-trimethyl-4-oxo-4,5,6,7-tetrahydro-1H-indazol-1-yl)isoquinolin-1(2H)-one], for which the GI50 in [1] was 1180 nM; in [2], 197 nM; in data set [3] it was 508 nM; in data set [4] it was 1030 nM; in data set [5] it was 1240 nM; in [6], 50 to 80 nM. Further, the figures for the concentration for 50% growth inhibition (GI50) in data set [8] and in data set [9] were 2560 nM and 26 nM, respectively. The Kd in [7] and in [11] was > 5000 nM throughout. Also, the IC50 in [10] is 1000 to 2500 nM. Also, in data set [12], the “CXCR4 and B-raf levels (Hsp90β-dependent clients)” value is “marked dose-dependent reduction”. Further, in data set [12], the FGFR3 level entry is recorded as “marked dose-dependent reduction”. In addition, the “Hsp27 and Hsf-1 levels (heat shock related proteins)” value in [12] was “declined upon increasing doses”. The “Survivin level (Hsp90α dependent substrate)” value in data set [12] is “not affected”.
Turning to `CCCC1Cc2cc(-n3nc(C)c4c3CC(C)(C)CC4=O)cc(N[C@H]3CC[C@H](O)CC3)c2C(=O)N1` (some centres unmarked) [Compound 6a, 8-(((1r,4r)-4-hydroxycyclohexyl)amino)-3-propyl-6-(3,6,6-trimethyl-4-oxo-4,5,6,7-tetrahydro-1H-indazol-1-yl)-3,4-dihydroisoquinolin-1(2H)-one], the IC50 in [13] was found to be 716 nM; in [14], 1050 nM; in [16], 935 nM; in data set [17] it was 265 nM; in data set [21] it was 498 nM; in data set [22] it was 39.4 nM. Besides, the IC50 in data set [23] was 811 nM. For the same compound, the “IC50 values against the screened cancer cell lines (in words)” value in data set [15] was “submicromolar”. Further, the “hERG channel maturation and trafficking” value in data set [18] is reported as “not affected”. Also, the “CDK4, CDK6, cIAP1 and CXCR4 levels (Hsp90β-dependent clients)” value in data set [19] was “induced the degradation”. Moreover, the “total levels of Akt-1 and Raf-1” value in data set [19] was “not affected”. Further, the “Hsf-1, Hsp70 and Hsp90 levels” value in data set [19] (24 h exposure) is given as “induced the degradation”. For the same compound, in data set [20], the “affinity for Hsp90β (in words)” value is reported as “increased binding affinity”. Besides, the “selectivity for Hsp90β over Hsp90α (in words)” value in data set [20] is “enhanced selectivity”.
